From patent publication US20240277698A1, “METHODS OF USING ALDOSTERONE SYNTHASE INHIBITORS” (CINCOR PHARMA, INC., priority 2021, published 2024)
“Also recorded” adds a separate entry of the source. Read-outs that look alike come from different tables or passages of the source.

Tests used:
[1] = Relative bioavailability of tablet versus oral solution, single 5 mg dose; type: in vivo, human; settings: for AUC(0-inf) / AUC(0-t) / Cmax: 5 mg
Experimental: The relative bioavailability of the tablet formulation intended for use in future clinical studies as compared to the oral solution of (R)-compound 1 administered in the SAD and MAD was assessed following a single 5 mg dose of each formulation. Mean (+SD [standard deviation]) plasma concentration-time profiles following administration of the oral solution and tablet formulations are presented in FIG. 9.
Mean (SD) PK parameters of (R)-compound 1 following administration of the oral solution and tablet formulations are presented in Table 12.

[2] = target: T1, CYP11B1 (Homo sapiens, UniProt P15538); experiment: MAD study: plasma cortisol (free and total) and 11-deoxycortisol, with and without Cortrosyn challenge; type: in vivo; settings: for cortisol (total or free) or 11-deoxycortisol: doses ≤5 mg, including Cortrosyn challenge
T1 construct: endogenous in cells; host or cells: adrenal cortex of healthy human subjects (in vivo, oral dosing)
T1 sequence (P15538 25-503): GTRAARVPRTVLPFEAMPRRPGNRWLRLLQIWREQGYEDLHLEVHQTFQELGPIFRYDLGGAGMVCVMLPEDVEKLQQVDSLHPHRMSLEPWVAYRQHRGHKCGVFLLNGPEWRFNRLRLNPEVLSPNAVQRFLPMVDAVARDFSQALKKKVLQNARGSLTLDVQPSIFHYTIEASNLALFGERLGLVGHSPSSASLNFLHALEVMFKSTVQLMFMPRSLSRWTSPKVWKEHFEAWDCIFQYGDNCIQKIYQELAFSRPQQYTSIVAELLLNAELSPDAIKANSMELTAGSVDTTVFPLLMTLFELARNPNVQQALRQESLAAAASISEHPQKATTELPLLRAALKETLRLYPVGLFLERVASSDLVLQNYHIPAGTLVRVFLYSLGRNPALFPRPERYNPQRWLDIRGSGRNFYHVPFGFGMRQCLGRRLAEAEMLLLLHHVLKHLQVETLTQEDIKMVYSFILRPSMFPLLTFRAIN
Source text: For each subject, the study consisted of: • A screening period of up to 28 days; • A 5-day inpatient run-in period during which subjects adhered to a controlled, standardized diet and underwent baseline PD assessments; • A 15-day inpatient treatment period, during which subjects received (R)-compound 1 or placebo once daily for 10 days while adhering to a controlled, standardized diet, followed by PK and PD sampling over an additional 5 days; and • A follow-up visit 3 days (1 day) after discharge from the clinical unit. • A cortisol stimulation test (Cohorts 1 and 2 only) and standing aldosterone assessment (all cohorts) were performed on Days 1 and 10. Serial blood samples for PK and PD were obtained prior to and at specified time points over 24 hours after dosing on Day 1 as well as prior to and at specified time points over 120 hours after dosing on Day 10. In addition, blood samples for PK were collected prior to dosing on Days 8 and 9. Urine for PK and PD measurements was collected over 24 hours starting just prior to dosing on Day 1 as well as over 120 hours starting just prior to dosing on Day 10.
These findings are consistent in the presence of Cortrosyn challenge (which occurred with the low salt treatment groups) and in the absence of the challenge (normal salt groups) (Table 13).

[3] = Day 1, 0.5 mg, normal salt diet
[4] = Day 1, 1.5 mg, normal salt diet
[5] = Day 1, 2.5 mg, low salt diet (Cortrosyn challenge)
[6] = Day 1, 2.5 mg, normal salt diet
[7] = Day 1, 5.0 mg, low salt diet (Cortrosyn challenge)
[8] = Day 10, 0.5 mg, normal salt diet
[9] = Day 10, 1.5 mg, normal salt diet
[10] = Day 10, 2.5 mg, low salt diet (Cortrosyn challenge)
[11] = Day 10, 2.5 mg, normal salt diet
[12] = Day 10, 5.0 mg, low salt diet (Cortrosyn challenge)

CCC(=O)N[C@@H]1CCCc2c(-c3ccc4c(c3)CCC(=O)N4C)cncc21 [(R)-Compound 1, (R)—N-(4-(1-methyl-2-oxo-1,2,3,4-tetrahydroquinolin-6-yl)-5,6,7,8-tetrahydroisoquinolin-8-yl)propionamide]
AUC(0-inf) ([1]; human, plasma, oral, tablet, read-out: AUC0-inf, GM (Geo. CV %)): 1670 ng·h/mL | AUC(0-inf) ([1]; human, plasma, oral, tablet, read-out: AUC0-inf, Geo. LS Mean): 1720 ng·h/mL | AUC(0-inf) ([1]; human, plasma, oral, tablet, read-out: AUC0-inf, Mean): 1720 ng·h/mL | AUC(0-t) ([1]; human, plasma, oral, tablet, read-out: AUC0-t, GM (Geo. CV %)): 1580 ng·h/mL | AUC(0-t) ([1]; human, plasma, oral, tablet, read-out: AUC0-t, Geo. LS Mean): 1620 ng·h/mL | AUC(0-t) ([1]; human, plasma, oral, tablet, read-out: AUC0-t, Mean): 1620 ng·h/mL | Cmax ([1]; human, plasma, oral, tablet, read-out: Cmax, GM (Geo. CV %)): 52.3 ng/mL | Cmax ([1]; human, plasma, oral, tablet, read-out: Cmax, Geo. LS Mean): 52.8 ng/mL | Cmax ([1]; human, plasma, oral, tablet, read-out: Cmax, Mean (SD)): 53.1 ng/mL | Tmax ([1]; human, plasma, oral, tablet, read-out: Tmax, Median (min, max)): 3 h | AUC(0-inf) ([1]; human, plasma, po, oral solution, read-out: AUC0-inf, GM (Geo. CV %)): 1710 ng·h/mL | AUC(0-inf) ([1]; human, plasma, po, oral solution, read-out: AUC0-inf, Geo. LS Mean): 1680 ng·h/mL | AUC(0-inf) ([1]; human, plasma, po, oral solution, read-out: AUC0-inf, Mean): 1750 ng·h/mL | AUC(0-t) ([1]; human, plasma, po, oral solution, read-out: AUC0-t, GM (Geo. CV %)): 1610 ng·h/mL | AUC(0-t) ([1]; human, plasma, po, oral solution, read-out: AUC0-t, Geo. LS Mean): 1580 ng·h/mL | AUC(0-t) ([1]; human, plasma, po, oral solution, read-out: AUC0-t, Mean): 1650 ng·h/mL | Cmax ([1]; human, plasma, po, oral solution, read-out: Cmax, GM (Geo. CV %)): 52.7 ng/mL | Cmax ([1]; human, plasma, po, oral solution, read-out: Cmax, Geo. LS Mean): 52.1 ng/mL | AUCextrapolated, GM (Geo. CV %) ([1]; oral solution): 5.018 (56.4) % | AUCextrapolated, Mean (SD) ([1]; oral solution): 5.565 (2.2131) % | Cmax, Mean (SD) ([1]; oral solution): 53.886 (11.6813) ng/mL | Tmax, Median (min, max) ([1]; oral solution): 2.500 (1.00, 3.50) h | AUCextrapolated, GM (Geo. CV %) ([1]; tablet): 4.995 (59.7) % | AUCextrapolated, Mean (SD) ([1]; tablet): 5.600 (2.3669) % | AUC0-inf, Ratio of Geo. LS Means (tablet/solution) ([1]; tablet versus oral solution): 102.2% | AUC0-t, Ratio of Geo. LS Means (tablet/solution) ([1]; tablet versus oral solution): 102.2% | Cmax, Ratio of Geo. LS Means (tablet/solution) ([1]; tablet versus oral solution): 101.2% | Plasma total cortisol, percent change from Day −1 to Day 10, predose, mean ([2]; 0.5 mg, normal salt diet): −2.83% | Plasma total cortisol, percent change from Day −1 to Day 10, predose, mean ([2]; 1.5 mg, normal salt diet): 19.44% | Plasma total cortisol, percent change from Day −1 to Day 10, predose, mean ([2]; 2.5 mg, low salt diet): 5.29% | Plasma total cortisol, percent change from Day −1 to Day 10, predose, mean ([2]; 2.5 mg, normal salt diet): −0.09% | Plasma total cortisol, percent change from Day −1 to Day 10, predose, mean ([2]; 5.0 mg, low salt diet): 58.40% | Plasma total cortisol, mean ([2]; Day 1, 12 hours postdose, 0.5 mg, normal salt diet): 28.14 ng/mL | Plasma total cortisol, mean ([2]; Day 1, 12 hours postdose, 1.5 mg, normal salt diet): 25.32 ng/mL | Plasma total cortisol, mean ([2]; Day 1, 12 hours postdose, 2.5 mg, low salt diet): 21.90 ng/mL | Plasma total cortisol, mean ([2]; Day 1, 12 hours postdose, 2.5 mg, normal salt diet): 30.10 ng/mL | Plasma total cortisol, mean ([2]; Day 1, 12 hours postdose, 5.0 mg, low salt diet): 19.43 ng/mL | Plasma total cortisol, mean ([2]; Day 1, predose, 0.5 mg, normal salt diet): 84.15 ng/mL | Plasma total cortisol, mean ([2]; Day 1, predose, 1.5 mg, normal salt diet): 97.61 ng/mL | Plasma total cortisol, mean ([2]; Day 1, predose, 2.5 mg, low salt diet): 71.75 ng/mL | Plasma total cortisol, mean ([2]; Day 1, predose, 2.5 mg, normal salt diet): 106.85 ng/mL | Plasma total cortisol, mean ([2]; Day 1, predose, 5.0 mg, low salt diet): 68.24 ng/mL | Plasma 11-deoxycortisol AUC0-12 estimated percent change from baseline, LS Mean [2, 3]: −0.57% | Plasma cortisol AUC0-12 estimated percent change from baseline, LS Mean [2, 3]: −4.43% | Plasma 11-deoxycortisol AUC0-12 estimated percent change from baseline, LS Mean [2, 4]: 2.39% | Plasma cortisol AUC0-12 estimated percent change from baseline, LS Mean [2, 4]: 0.62% | Plasma 11-deoxycortisol AUC0-12 estimated percent change from baseline, LS Mean [2, 5]: 21.63% | Plasma cortisol AUC0-12 estimated percent change from baseline, LS Mean [2, 5]: −3.91% | Plasma 11-deoxycortisol AUC0-12 estimated percent change from baseline, LS Mean [2, 6]: 12.73% | Plasma cortisol AUC0-12 estimated percent change from baseline, LS Mean [2, 6]: −0.52% | Plasma 11-deoxycortisol AUC0-12 estimated percent change from baseline, LS Mean [2, 7]: 36.67% | Plasma cortisol AUC0-12 estimated percent change from baseline, LS Mean [2, 7]: 4.04% | Plasma total cortisol, mean ([2]; Day 2, predose, 0.5 mg, normal salt diet): 88.33 ng/mL | Plasma total cortisol, mean ([2]; Day 2, predose, 1.5 mg, normal salt diet): 95.12 ng/mL | Plasma total cortisol, mean ([2]; Day 2, predose, 2.5 mg, normal salt diet): 109.23 ng/mL | Plasma total cortisol, mean ([2]; Day 10, 12 hours postdose, 0.5 mg, normal salt diet): 22.36 ng/mL | Plasma total cortisol, mean ([2]; Day 10, 12 hours postdose, 1.5 mg, normal salt diet): 41.31 ng/mL | Plasma total cortisol, mean ([2]; Day 10, 12 hours postdose, 2.5 mg, low salt diet): 22.93 ng/mL | Plasma total cortisol, mean ([2]; Day 10, 12 hours postdose, 2.5 mg, normal salt diet): 31.86 ng/mL | Plasma total cortisol, mean ([2]; Day 10, 12 hours postdose, 5.0 mg, low salt diet): 31.90 ng/mL | Plasma total cortisol, mean ([2]; Day 10, 24 hours postdose, 0.5 mg, normal salt diet): 95.76 ng/mL | Plasma total cortisol, mean ([2]; Day 10, 24 hours postdose, 1.5 mg, normal salt diet): 90.27 ng/mL | Plasma total cortisol, mean ([2]; Day 10, 24 hours postdose, 2.5 mg, low salt diet): 94.36 ng/mL | Plasma total cortisol, mean ([2]; Day 10, 24 hours postdose, 2.5 mg, normal salt diet): 126.20 ng/mL | Plasma total cortisol, mean ([2]; Day 10, 24 hours postdose, 5.0 mg, low salt diet): 121.40 ng/mL | Plasma total cortisol, mean ([2]; Day 10, predose, 0.5 mg, normal salt diet): 81.90 ng/mL | Plasma total cortisol, mean ([2]; Day 10, predose, 1.5 mg, normal salt diet): 96.54 ng/mL | Plasma total cortisol, mean ([2]; Day 10, predose, 2.5 mg, low salt diet): 91.85 ng/mL | Plasma total cortisol, mean ([2]; Day 10, predose, 2.5 mg, normal salt diet): 106.52 ng/mL | Plasma total cortisol, mean ([2]; Day 10, predose, 5.0 mg, low salt diet): 112.67 ng/mL | Plasma 11-deoxycortisol AUC0-12 estimated percent change from baseline, LS Mean [2, 8]: −6.77% | Plasma cortisol AUC0-12 estimated percent change from baseline, LS Mean [2, 8]: −19.53% | Plasma 11-deoxycortisol AUC0-12 estimated percent change from baseline, LS Mean [2, 9]: 1.82% | Plasma cortisol AUC0-12 estimated percent change from baseline, LS Mean [2, 9]: −4.45% | Plasma 11-deoxycortisol AUC0-12 estimated percent change from baseline, LS Mean [2, 10]: −25.69% | Plasma cortisol AUC0-12 estimated percent change from baseline, LS Mean [2, 10]: −38.02% | Plasma 11-deoxycortisol AUC0-12 estimated percent change from baseline, LS Mean [2, 11]: −2.72% | Plasma cortisol AUC0-12 estimated percent change from baseline, LS Mean [2, 11]: −9.23% | Plasma 11-deoxycortisol AUC0-12 estimated percent change from baseline, LS Mean [2, 12]: 18.84% | Plasma cortisol AUC0-12 estimated percent change from baseline, LS Mean [2, 12]: −37.25% | Plasma total cortisol, mean ([2]; Day −1 predose, 0.5 mg, normal salt diet): 86.74 ng/mL | Plasma total cortisol, mean ([2]; Day −1 predose, 1.5 mg, normal salt diet): 90.79 ng/mL | Plasma total cortisol, mean ([2]; Day −1 predose, 2.5 mg, low salt diet): 90.39 ng/mL | Plasma total cortisol, mean ([2]; Day −1 predose, 2.5 mg, normal salt diet): 107.50 ng/mL | Plasma total cortisol, mean ([2]; Day −1 predose, 5.0 mg, low salt diet): 83.17 ng/mL | cortisol (total or free) or 11-deoxycortisol [2]: remained unaffected | cortisol (total or free) or 11-deoxycortisol ([2]; listed as (R)-compound 1): no apparent effects; also recorded: no apparent differences
